Molecular target: T1, Signal transducer and activator of transcription 1-alpha/beta (Homo sapiens, UniProt P42224)
T1 sequence (P42224 whole entry): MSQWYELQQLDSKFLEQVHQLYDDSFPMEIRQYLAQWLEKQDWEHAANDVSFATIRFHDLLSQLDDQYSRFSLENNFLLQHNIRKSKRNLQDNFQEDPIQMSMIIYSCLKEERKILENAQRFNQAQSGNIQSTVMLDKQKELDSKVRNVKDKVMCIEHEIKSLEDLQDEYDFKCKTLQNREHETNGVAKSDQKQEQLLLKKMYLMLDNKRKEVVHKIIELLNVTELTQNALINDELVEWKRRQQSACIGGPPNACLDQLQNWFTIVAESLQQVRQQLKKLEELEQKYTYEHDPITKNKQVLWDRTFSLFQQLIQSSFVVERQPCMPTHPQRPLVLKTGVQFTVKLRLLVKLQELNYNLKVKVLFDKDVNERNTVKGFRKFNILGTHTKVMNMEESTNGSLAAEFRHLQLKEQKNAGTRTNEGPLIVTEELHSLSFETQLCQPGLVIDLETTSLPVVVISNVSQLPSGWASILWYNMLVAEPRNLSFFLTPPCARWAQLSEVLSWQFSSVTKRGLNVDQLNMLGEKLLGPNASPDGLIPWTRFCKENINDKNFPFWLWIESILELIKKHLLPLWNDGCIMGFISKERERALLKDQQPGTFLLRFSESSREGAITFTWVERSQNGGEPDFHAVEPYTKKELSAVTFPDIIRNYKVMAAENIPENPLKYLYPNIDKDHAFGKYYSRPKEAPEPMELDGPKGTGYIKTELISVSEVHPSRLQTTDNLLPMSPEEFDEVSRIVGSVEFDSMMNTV
Assay: PubChem AID 1396

In the case of `CCN1C(=O)C(=CNNC(=O)c2ccncc2)C(=O)N(CC)C1=S` [SMR000218837], the IC50 is reported as 4.42 µM.

— BindingDB's records for doi:10.7270/Q2WS8RN8 (The Scripps Research Institute Molecular Screening Center, 2008)
